The record followed here is patent publication US10562912B2 (C&C Research Laboratories, priority 2013, dated 2020).

The term IC50 denotes the concentration that gives 50% inhibition. Read a high IC50 as weaker potency in that assay.

Common to all, as to type: cell-based
In one assay the test system is HEL92.1.7. In words: Cell growth inhibition assay, blood cancer cell line HEL92.1.7. The settings on record: Homo sapiens, HEL 92.1.7, HEL92.1.7 blood cancer cell line. The method in brief:
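Cells were seeded at 3,000/well (HCT116, DU-145) or 5,000/well (SW626 and the others) and exposed to serial compound dilutions for 72 to 96 h at 37 °C under 5% CO2. Viability was read as CellTiter-Glo luminescence against 0.1% DMSO and cell-free wells.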

The next assay relates to U266. The experiment in a line: Cell growth inhibition assay, blood cancer cell line U266. Conditions: Homo sapiens, U-266 blood cancer cell line. The procedure: (§1) The inhibitory effects of the compounds of the present invention against the growth of cancer cells were evaluated as shown below. The cancer cell lines including stomach cancer cell line (AGS), breast cancer cell lines (MDA-MB-231, MDA-MB-468, and BT-549), prostate cancer cell lines (LNCaP and DU-145), colon cancer cell line (HCT116), ovarian cancer cell line (SW626), liver cancer cell line (Hep3B), kidney cancer cell line (ACHN), lung cancer cell line (NCI-H23) and blood cancer cell lines (HEL92.1.7 and U266) were cultured under the protocol provided by each supplier. A medium supplemented with 10 ng/mL of IL-6 was used for LNCaP, a prostate cancer cell line, when treated with a drug. Each type of cells to be used in experiments were sub-cultured in a 96-well plate by counting the exact number of cells using Tali™ Image-based Cytometer (Life Technologies). In a 96-well plate, AGS, HCT116, and DU-145 were employed with 3,000 cells/well; NCI-H23, SW626, Hep3B, ACHN, BT-549, MDA-MB-231, HEL92.1.7, and U266 were employed with 5,000 cells/well; and LNCaP and MDA-MB-468 were employed with 10,000 cells/well. The cells were treated with the compounds listed in Examples which were diluted in various concentrations. Upon completion of the compounds treatment, AGS, HCT116, SW626, DU145, NCI-H23, Hep3B, ACHN, BT-549, LNCaP, HEL92.1.7, and U266 cells were cultured at 37° C. under 5% CO2 for from 72 to 96 hours, and MDA-MB-231 and MDA-MB-468 cells were cultured at 37° C. in air for from 72 to 96 hours. Subsequently, the cells were observed under microscope and drug precipitation and particular findings were investigated and recorded. And then, the 96-well plate was placed at room temperature for 30 minutes, added with 20 μL/well of CellTiter-Glo solution (Cat No. G7573, Promega) and shaken for 10 minutes, followed by being subjected to the measurement using PHERAstar™ microplate reader (BMG LABTECH) according to the supplier's general luminometer protocol. Wells where only culture liquid added without cell plating were used as a negative control, whereas wells where culture liquid containing 0.1% DMSO instead of the compounds listed in Examples were used as a positive control.

The next assay concerns NCI-H23. The experiment in a line: Cell growth inhibition assay, lung cancer cell line NCI-H23. The settings on record: Homo sapiens. How it is done:
as §1, with “Wells where only culture liquid added without cell plating were used as a negative control, whereas wells where culture liquid containing 0.1% DMSO instead of the compounds listed in Examples were used as a positive control.” left out

A further assay deals with DU-145. In words: Cell growth inhibition assay, prostate cancer cell line DU-145. Conditions: Homo sapiens, DU-145 prostate cancer cell line. In short, it runs like this:
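Luminescent CellTiter-Glo readout of viable cells after 72–96 h compound exposure (37° C., 5% CO2). Seeding: 3,000 cells/well for DU-145 and HCT116, 5,000 cells/well for SW626. Controls were medium without cells and 0.1% DMSO vehicle.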

Another assay concerns ACHN. In words: Cell growth inhibition assay, kidney cancer cell line ACHN. The settings on record: Homo sapiens. How it is done:
as §1, with “Wells where only culture liquid added without cell plating were used as a negative control, whereas wells where culture liquid containing 0.1% DMSO instead of the compounds listed in Examples were used as a positive control.” left out

In a further assay the test system is HCT116. The experiment in a line: Cell growth inhibition assay, colon cancer cell line HCT116. The settings on record: Homo sapiens, HCT-116 colon cancer cell line. The procedure:
as §1, with “Wells where only culture liquid added without cell plating were used as a negative control, whereas wells where culture liquid containing 0.1% DMSO instead of the compounds listed in Examples were used as a positive control.” left out

Another assay deals with MDA-MB-468. In words: Cell growth inhibition assay, breast cancer cell line MDA-MB-468. Conditions: Homo sapiens, MDA-MB-468 breast cancer cell line. The procedure: as §1
For a further assay, the system named is BT-549. The experiment in a line: Cell growth inhibition assay, breast cancer cell line BT-549. Conditions: Homo sapiens, BT-549 breast cancer cell line. The procedure: as §1
In a further assay the test system is Hep3B. The experiment in a line: Cell growth inhibition assay, liver cancer cell line Hep3B. Conditions: Homo sapiens. How it is done:
as §1

A further assay deals with MDA-MB-231. In words: Cell growth inhibition assay, breast cancer cell line MDA-MB-231. Conditions: Homo sapiens; MDA-MB-231 breast cancer cell line, 5,000 cells/well.
For another assay, the system named is SW626. The experiment in a line: Cell growth inhibition assay, ovarian cancer cell line SW626. The settings on record: Homo sapiens. How it is done: as §1, with “Wells where only culture liquid added without cell plating were used as a negative control, whereas wells where culture liquid containing 0.1% DMSO instead of the compounds listed in Examples were used as a positive control.” left out

In another assay the test system is AGS. The experiment in a line: Cell growth inhibition assay, stomach cancer cell line AGS. Conditions: Homo sapiens; AGS stomach cancer cell line, 3,000 cells/well.
Another assay deals with LNCaP. The experiment in a line: Cell growth inhibition assay, prostate cancer cell line LNCaP (medium with 10 ng/mL IL-6). The settings on record: Homo sapiens, medium supplemented with 10 ng/mL of IL-6, 10,000 cells/well.
Another assay addresses T1, STAT3 (Homo sapiens, UniProt P40763).
T1 construct: plasmid pSTAT3-TA-luc), which contains a stably operating STAT3 promoter; endogenous in cells
In words: STAT3 reporter gene assay (luciferase), LNCaP stable cell line (pSTAT3-TA-luc), IL-6 stimulation. The method in brief: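 Cytotoxicity was run on a duplicate plate with CellTiter-Glo, while the other plate gave luciferase read-outs from lysed LNCaP pSTAT3-TA-luc reporter cells. Cells were treated with graded compound concentrations plus IL-6 (10 ng/mL final) for 24–48 h in 3% DCC-FBS medium. Unstimulated and stimulated wells served as negative and positive controls.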

T1 sequence (P40763 whole entry): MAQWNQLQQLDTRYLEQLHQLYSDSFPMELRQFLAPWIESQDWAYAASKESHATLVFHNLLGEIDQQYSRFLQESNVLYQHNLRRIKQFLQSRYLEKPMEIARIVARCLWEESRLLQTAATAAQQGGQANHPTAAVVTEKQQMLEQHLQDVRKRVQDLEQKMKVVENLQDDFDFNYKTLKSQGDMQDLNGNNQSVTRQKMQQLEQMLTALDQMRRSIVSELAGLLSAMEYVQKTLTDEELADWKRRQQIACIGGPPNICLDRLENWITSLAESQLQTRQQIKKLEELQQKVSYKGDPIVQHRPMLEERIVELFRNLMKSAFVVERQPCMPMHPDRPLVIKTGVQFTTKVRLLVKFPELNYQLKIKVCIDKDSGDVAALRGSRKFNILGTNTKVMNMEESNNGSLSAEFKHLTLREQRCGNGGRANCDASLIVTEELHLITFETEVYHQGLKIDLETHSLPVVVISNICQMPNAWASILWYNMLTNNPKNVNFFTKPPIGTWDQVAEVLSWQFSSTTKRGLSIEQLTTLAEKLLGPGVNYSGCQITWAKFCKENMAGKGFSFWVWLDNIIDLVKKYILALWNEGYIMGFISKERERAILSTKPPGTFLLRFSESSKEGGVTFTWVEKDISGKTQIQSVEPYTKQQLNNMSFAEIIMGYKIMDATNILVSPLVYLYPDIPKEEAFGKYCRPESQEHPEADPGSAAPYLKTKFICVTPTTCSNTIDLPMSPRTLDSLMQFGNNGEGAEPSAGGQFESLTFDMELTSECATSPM

For `COc1cc(OC(F)(F)F)cc(C(C)(C)c2cc(Br)cc(NC(=O)c3cc4ccc(NS(C)(=O)=O)cc4[nH]3)c2)c1` [Example 16, N-(3-bromo-5-(2-(3-methoxy-5-(trifluoromethoxy)phenyl)propan-2-yl)phenyl)-6-(methylsulfonamido)-1H-indole-2-carboxamide], the half-inhibitory concentration (IC50) came to 0.14 µM with HEL92.1.7; 0.25 µM in the assay with U266; 0.3 µM in the assay on NCI-H23; 0.024 µM in the assay on DU-145; 0.004 µM with ACHN; 0.31 µM in the assay on HCT116. For the same molecule, the concentration for half-maximal inhibition (IC50) came to 0.02 µM in the assay on MDA-MB-468; 0.26 µM with BT-549; 2.1 µM in the assay on Hep3B; 0.025 µM in the assay with MDA-MB-231; 0.066 µM in the assay on SW626; 0.044 µM in the assay on AGS. Moreover, the results for the 50% inhibitory concentration (IC50) with LNCaP and on STAT3 were 0.48 µM and 0.112 µM, respectively.
Turning to `COc1cc(OC(F)(F)F)cc(C(C)(C)c2cc(Cl)cc(NC(=O)c3cc4ccc(NS(C)(=O)=O)cc4[nH]3)c2)c1` [Example 24, N-(3-chloro-5-(2-(3-methoxy-5-(trifluoromethoxy)phenyl)propan-2-yl)phenyl)-6-(methylsulfonamido)-1H-indole-2-carboxamide], the IC50 was found to be 0.12 µM in the assay on HEL92.1.7; 0.13 µM in the assay with U266; 0.044 µM with DU-145; 0.027 µM in the assay with MDA-MB-231; 0.083 µM in the assay with LNCaP; 0.051 µM against STAT3.
Turning to `COc1cc(NC(=O)c2cc3cc(NS(C)(=O)=O)ccc3s2)cc(C(C)(C)c2cc(OC)cc(OC(F)(F)F)c2)c1` [Example 34, N-(3-methoxy-5-(2-(3-methoxy-5-(trifluoromethoxy)phenyl)propan-2-yl)phenyl)-5-(methylsulfonamido)benzo[b]thiophene-2-carboxamide], the IC50 is 0.2 µM in the assay on HEL92.1.7; 0.29 µM with U266; 0.023 µM in the assay with DU-145; under 0.00064 µM in the assay on MDA-MB-468; 3.4 µM with BT-549; 0.028 µM in the assay on Hep3B. Also, the results for the IC50 in the assay with MDA-MB-231, in the assay on LNCaP and against STAT3 were 0.007 µM, 0.24 µM and 0.051 µM, respectively.
Take `COc1cc(OC(F)(F)F)cc(C(C)(C)c2cc(Br)cc(NC(=O)c3cc4cc(NS(C)(=O)=O)ccc4s3)c2)c1` [Example 36, N-(3-bromo-5-(2-(3-methoxy-5-(trifluoromethoxy)phenyl)propan-2-yl)phenyl)-5-(methylsulfonamido)benzo[b]thiophene-2-carboxamide]: the concentration for half-maximal inhibition (IC50) in the assay on HEL92.1.7 was 0.27 µM; in the assay on U266 it was 0.22 µM; in the assay with NCI-H23, under 0.21 µM; with DU-145, 0.006 µM; in the assay with ACHN it was under 0.00085 µM; in the assay on HCT116, under 0.072 µM. Also, the IC50 with MDA-MB-468 is under 0.0076 µM; in the assay on BT-549, 0.043 µM; in the assay with Hep3B, 2.2 µM; in the assay with MDA-MB-231, 0.005 µM; in the assay on SW626 it was 0.013 µM; in the assay with AGS, 0.009 µM. For the same molecule, the 50% inhibitory concentration (IC50) in the assay on LNCaP is 0.21 µM; on STAT3, 0.027 µM.
Regarding `COc1cc(OC(F)(F)F)cc(C(C)(C)c2cc(Cl)cc(NC(=O)c3cc4cc(NS(C)(=O)=O)ccc4s3)c2)c1` [Example 42, N-(3-chloro-5-(2-(3-methoxy-5-(trifluoromethoxy)phenyl)propan-2-yl)phenyl)-5-(methylsulfonamido)benzo[b]thiophene-2-carboxamide], the half-maximal inhibitory concentration (IC50) is 0.044 µM in the assay on HEL92.1.7; 0.023 µM in the assay with U266; 0.009 µM in the assay with DU-145; 0.005 µM in the assay with MDA-MB-231; 0.032 µM in the assay with LNCaP; 0.007 µM against STAT3.
For `CCOc1cc(OC(F)(F)F)cc(C(C)(C)c2cc(Br)cc(NC(=O)c3cc4cc(NS(C)(=O)=O)ccc4s3)c2)c1` [Example 48, N-(3-bromo-5-(2-(3-ethoxy-5-(trifluoromethoxy)phenyl)propan-2-yl)phenyl)-5-(methylsulfonamido)benzo[b]thiophene-2-carboxamide], the concentration for half-maximal inhibition (IC50) in the assay with HEL92.1.7 is 0.026 µM; with U266, 0.044 µM; with DU-145 it was 0.008 µM; in the assay with MDA-MB-231 it was 0.002 µM; in the assay on LNCaP it was 0.077 µM; at STAT3, 0.007 µM.
For the molecule `CC(C)Oc1cc(OC(F)(F)F)cc(C(C)(C)c2cc(Br)cc(NC(=O)c3cc4cc(NS(C)(=O)=O)ccc4s3)c2)c1` [Example 49, N-(3-bromo-5-(2-(3-isopropoxy-5-(trifluoromethoxy)phenyl)propan-2-yl)phenyl)-5-(methylsulfonamido)benzo[b]thiophene-2-carboxamide], the IC50 in the assay on HEL92.1.7 was determined as 0.023 µM; in the assay with U266 it was 0.014 µM; in the assay on DU-145 it was 0.007 µM; in the assay on MDA-MB-231, 0.001 µM; in the assay with LNCaP it was 0.049 µM; at STAT3, 0.007 µM.
As for `CC(C)(c1cccc(CN2CCOCC2)c1)c1cc(Br)cc(NC(=O)c2cc3cc(NS(C)(=O)=O)ccc3s2)c1` [Example 50, N-(3-bromo-5-(2-(3-(morpholinomethyl)phenyl)propan-2-yl)phenyl)-5-(methylsulfonamido)benzo[b]thiophene-2-carboxamide], the IC50 stood at 0.83 µM in the assay with HEL92.1.7; 0.84 µM in the assay on U266; 0.36 µM in the assay on DU-145; 0.24 µM with MDA-MB-231; 0.76 µM in the assay with LNCaP; 0.15 µM against STAT3.
Take `CC(C)Oc1cc(OC(F)(F)F)cc(C(C)(C)c2cc(Cl)cc(NC(=O)c3cc4cc(NS(C)(=O)=O)ccc4s3)c2)c1` [Example 68, N-(3-chloro-5-(2-(3-isopropoxy-5-(trifluoromethoxy)phenyl)propan-2-yl)phenyl)-5-(methylsulfonamido)benzo[b]thiophene-2-carboxamide]: the IC50 in the assay with HEL92.1.7 was found to be 0.024 µM; in the assay with U266, 0.019 µM; with DU-145, 0.006 µM; in the assay on MDA-MB-231 it was 0.041 µM; in the assay on LNCaP, 0.019 µM; against STAT3, 0.011 µM.
For the molecule `COc1cc(OC(F)(F)F)cc(C(C)(C)c2cc(Br)cc(NC(=O)c3cc4cnc(NS(C)(=O)=O)cc4[nH]3)c2)c1` [Example 98, N-(3-bromo-5-(2-(3-methoxy-5-(trifluoromethoxy)phenyl)propan-2-yl)phenyl)-6-(methylsulfonamido)-1H-pyrrolo[3,2-c]pyridine-2-carboxamide], the concentration for half-maximal inhibition (IC50) in the assay on HEL92.1.7 was 0.86 µM; in the assay with U266 it was 0.56 µM; in the assay on DU-145 it was 0.31 µM; in the assay on MDA-MB-231, 0.59 µM; with LNCaP it was 0.76 µM; against STAT3, 0.098 µM.
Turning to `CC(C)(C)OC(=O)N1CCN(Cc2cccc(C(C)(C)c3cc(Br)cc(NC(=O)c4cc5cc(NS(C)(=O)=O)ccc5s4)c3)c2)CC1` [Example 116, tert-butyl 4-(3-(2-(3-bromo-5-(5-(methylsulfonamido)benzo[b]thiophene-2-carboxamido)phenyl)propan-2-yl)benzyl)piperazine-1-carboxylate], the IC50 in the assay with HEL92.1.7 was 0.13 µM; with U266, 0.16 µM; in the assay on DU-145, 0.058 µM; in the assay with MDA-MB-231, 0.055 µM; in the assay with LNCaP, 0.22 µM; against STAT3, 0.053 µM.
